# Experimental data reported in US8933270B2, “Use of docasatrienes, resolvins, and their stable analogs in the treatment of airway diseases and asthma” (The Brigham and Women's Hospital, Inc., priority 2002, dated 2015).
# Legend:
# PMN infiltration = test: Zymosan A-induced peritonitis; type: in vivo, FVB mice; conditions: for inhibition of PMN/leukocyte infiltration: i.v. bolus before zymosan A, lavage at 2 h
# Procedure: (§1) FIG. 5 depicts Bioimpact properties of omega-3-derived Resolvins. A) Human glioma cells: Inhibition of TNF-stimulated IL-1β transcripts DBTRG-05MG cells 10^6/ml were stimulated with 50 ng/ml of human recombinant TNFα for 16 hours to induce expression of IL-1β transcripts. Concentration dependence with COX-2 products: 17-HDHA (n), 13-HDHA (l)and di-/tri-HDHA (n). […] (insets) Results are representative of RT-PCR gels of MG cells exposed to 100 nM of 13-HDHA or 17-HDHA and graphed after normalization of the IL-1β transcripts using GAPDH. B) Influence of eicosanoids and docosanoids on fMLP-induced neutrophil migration across micovascular endothelial monolayers Neutrophils (1×10^6 cells/monolayer) were exposed to vehicle containing buffer, or indicated concentrations of aspirin-triggered LXA4 analog (closed diamonds) 5S,12,18R-triHEPE (closed squares), 17R-HDHA (closed circles) or 13-HDHA (closed triangles) for 15 minutes at 37° C. Neutrophils were then layered on HMVEC monolayers and stimulated to transmigrate by a 10^−8 M fMLP gradient for 1 hr at 37° C. Transmigration was assessed by quantitation of the neutrophil marker myeloperoxidase. Results are presented as mean±SEM number of PMN (n=8-12 monolayers per condition). C) Reduction of PMN in murine peritonitis and skin pouch peritonitis: Compounds (100 ng in 120 μL sterile saline) were injected by intravenous bolus injection into the mouse tail vein and followed by 1 ml zymosan A (1 mg/ml) into the peritoneum. Peritoneal lavages were collected (2 h) and cell types were enumerated.
# Human PMN transendothelial migration was quantitated by monitoring myeloperoxidase (MPO) an azurophilic granule marker as in (34, 37). Inflammatory exudates were initiated with intrapouch injection of recombinant mouse TNFα (100 ng/pouch; R&D Systems) into dorsal air pouches (10) of 6-8 wk male FVB mice fed laboratory rodent diet 5001 (Lab Diet, Purina Mills) containing less than 0.25% arachidonic acid, 1.49% EPA and 1.86% DHA followed by ASA (500 μg) at 3.5 h and 300 μg DHA/pouch at 4 h post-TNFα injection. At 6 h (within the resolution phase), pouches were lavaged (3 ml saline) and exudate cells were enumerated Inhibition of TNFα stimulated (100 ng/pouch) PMN infiltration with i.v. tail injection of either 17R-HDHA (as prepared with COX-2 vide infra), 5S,12,18R-HEPE, or a 15-epi-LXA4 analog were determined with pouch lavages taken at 4 h. Peritonitis was performed using 6 to 8-week-old FVB male mice (Charles River Laboratories) fed laboratory Rodent Diet 5001 (Purina Mills) that were anesthetized with isoflurane, and compounds to be tested (125 μl) were administered intravenously. Zymosan A in 1 ml (1 mg/ml) was injected ˜1-1.5 min later in the peritoneum. Each test compound (100 ng/incubation, i.e. 17R-HDHA in ethanol) or vehicle alone was suspended in ˜5 μl and mixed in sterile saline 120 μl. Two hours after the intraperitoneal injections, and in accordance with the Harvard Medical Area Standing Committee on Animals protocol #02570, mice were euthanized and peritoneal lavages rapidly collected for enumeration.
# Peritonitis was induced in 6 to 8 week old male FVB mice by peritoneal injection of 1 mg Zymosan A. Compounds 4,17S and 10,17S-diHDHA were injected by intravenous bolus injection, 1.5 minutes before Zymosan A treatment. Two hours after induction of peritonitis, rapid peritoneal lavages were collected and cell type enumeration was performed.
# [1] = test system: IL-1β transcripts in DBTRG-05MG cells; test: Inhibition of TNF-stimulated IL-1β transcripts (RT-PCR); type: cell-based, human; conditions: 50 ng/ml TNFα, 16 h; read-out: IC50, inhibition of TNFα-induced IL-1β transcripts / cytokine expression
# Procedure: as §1, with “C) Reduction of PMN in murine peritonitis and skin pouch peritonitis: Compounds (100 ng in 120 μL sterile saline) were injected by intravenous bolus injection into the mouse tail vein and followed by 1 ml zymosan A (1 mg/ml) into the peritoneum. Peritoneal lavages were collected (2 h) and cell types were enumerated.” left out
# Human glioma cells DBTRG-05MG cells (ATCC) were cultured as recommended by ATCC. […] Results were analyzed using the NIH Image program (http://rsb.info.nih.gov/nih-image).
# human recombinant COX-2 = molecular target: T1, human recombinant COX-2 (Homo sapiens, UniProt P35354); test: Impact of NSAIDs on COX-2 conversion of DHA; type: biochemical
# T1 construct: made in house; host or cells: Sf9 insect cells (microsomal fractions)
# T1 sequence (P35354 18-604): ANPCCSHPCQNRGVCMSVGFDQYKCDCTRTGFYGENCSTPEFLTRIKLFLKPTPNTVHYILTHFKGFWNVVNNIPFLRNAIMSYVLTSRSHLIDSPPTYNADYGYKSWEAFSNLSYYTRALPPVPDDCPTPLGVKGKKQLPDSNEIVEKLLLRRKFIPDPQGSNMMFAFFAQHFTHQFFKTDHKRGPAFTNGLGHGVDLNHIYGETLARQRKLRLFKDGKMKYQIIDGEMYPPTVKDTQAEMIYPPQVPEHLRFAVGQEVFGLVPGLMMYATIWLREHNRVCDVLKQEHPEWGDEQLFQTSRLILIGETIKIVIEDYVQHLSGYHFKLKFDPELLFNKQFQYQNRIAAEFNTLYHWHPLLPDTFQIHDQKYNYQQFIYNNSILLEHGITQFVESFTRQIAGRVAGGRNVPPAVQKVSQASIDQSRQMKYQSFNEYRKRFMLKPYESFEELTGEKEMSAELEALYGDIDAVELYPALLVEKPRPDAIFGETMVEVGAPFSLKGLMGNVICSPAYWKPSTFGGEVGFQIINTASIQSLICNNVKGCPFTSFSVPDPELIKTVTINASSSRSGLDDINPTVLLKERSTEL
# Procedure: Human recombinant COX-2 was overexpressed in Sf9 insect cells (ATCC). The microsomal fractions (˜8 μl) were suspended in Tris (100 mM, pH 8.0) as in (35). ASA was incubated (˜2 mM, 37° C., 30 min) with COX-2 before addition of DHA (10 μM), or in some experiments [1-^14C]-labeled DHA (from American Radiolabeled Chemicals, Inc.), and conversions were monitored in parallel using [1^−14C]-labeled C20:4 (with ASA) (as in FIG. 2; also see text).
# Incubations were extracted with deuterium-labeled internal standards (15-HETE and C20:4) for LC-MS-MS analysis as in (33) using a Finnigan LCQ liquid chromatography ion trap tandem mass spectrometer (San Jose, Calif.) equipped with a LUNA C18-2 (150×2 mm×5 μm or 100×2 mm×5 μm) column and a rapid spectra scanning UV diode array detector that monitored UV absorbance ˜0.2 min prior to samples entering the MS-MS. All intact cell incubations and in vivo exudates were stopped with 2 ml cold methanol and kept at −80° C. for >30 minutes. Samples were extracted using C18 solid phase extraction and analyzed using GC-MS (see Table 2) (Hewlett-Packard), thin layer chromatography or tandem liquid chromatography-mass spectrometry (LC-MS-MS). Also, a Chiralcel OB-H column (4.6×250 mm; J. T. Baker) was used to determine R and S alcohol configurations of monohydroxy-PUFA using isocratic mobile phase (hexane:isopropanol; 97.5:2.5, vol:vol, with a 0.6 ml/min flow rate). Detailed procedures for isolation, quantitation and structural determination of lipid-derived mediators were recently reported (36) and used here essentially as reported for elucidation of novel products.
# Results are the mean±SEM, n=3. Products were extracted, identified, and quantitated using deuterium internal standards and LC-MS-MS (see Methods).
# leukocyte infiltration = test: TNFα-induced dorsal air pouch; type: in vivo, FVB mice; conditions: FIG. 5C
# [2] = test system: airway leukocyte accumulation; test: OVA sensitization and aerosol challenge: lung histology and BAL leukocytes; type: in vivo
# Procedure: To determine if PD1 and Resolvin E1 had properties of a counter-regulatory mediator during airway inflammation, physiologically relevant quantities (2, 20 or 200 ng) were administered by intravenous injection to allergen sensitized animals just prior (30 min) to aerosol challenge on 4 consecutive days. […] In conjunction with decreased airway inflammation, levels of the counter-regulatory eicosanoid LXA4 were also […] in the presence of PD1 (data not shown).
# Five to seven week old male FvB mice (Charles River Laboratories, Wilmington, Mass.) were housed in isolation cages under viral antibody-free conditions. Mice were fed a standard diet (Laboratory Rodent Diet 5001, PMI Nutrition International, Richmond, Ind.) that contained no less than 4.5% total fat with 0.26% omega-3 fatty acids and <0.01% C20:4. After Harvard Medical Area IRB approval (Protocol #02570), mice were sensitized with intraperitoneal injections of ovalbumin (OVA) (Grade III; Sigma Chemical Co., St. Louis, Mo.) (10 μg) plus 1 mg aluminum hydroxide (ALUM) (J. T. Baker Chemical Co.; Phillipsburg, N.J.) as adjuvant in 0.2 ml PBS on days 0 and 7. On days 14, 15, 16 and 17, the mice received PD1 (2, 20 or 200 ng), Resolvin E1 (200 ng) (products of biogenic synthesis (Hong, Gronert et al. 2003)), or PBS with 1.6 mM CaCl2 and 1.6 mM MgCl2 (0.1 ml) by intravenous injection 30 min prior to an aerosol challenge containing either PBS or 6% OVA for 25 min/day. On day 18, 24 h after the last aerosol challenge, airway responsiveness to aerosolized methacholine (0, 20, 50 and 75 mg, 10 sec) was measured, bilateral bronchoalveolar lavage (BAL) (2 aliquots of 1 ml PBS plus 0.6 mM EDTA) was performed or tissues were harvested for histological analysis. Lung resistance was measured using a Flexivent ventilator (SciReq, Montreal, Quebec). Resistance was measured as a function of time for each animal, and peak and average values for each dose of methacholine were recorded. No BAL or histological analysis was performed on those animals undergoing airway hyper-responsiveness or lipid extraction studies.
# Tissue morphometry was performed by a member (K. Haley) of the Lung Histopathology Core Laboratory at Brigham and Women's Hospital who was blinded to the experimental conditions prior to histological analyses. Three fields per slide were examined at 200× magnification for vessels, large airways and alveoli with EOS counted at 400× magnification in randomly assigned fields. Vessels were identified by perivascular smooth muscle, and large airways were identified by at least ½ their diameter either cuboidal or columnar epithelia. Measurement of inflammatory mediators was determined in cell-free BAL fluid (2000 g, 10 min) by sensitive and specific ELISAs, in tandem, for interleukin-5 (IL-5), IL-12, IL-13, PGD2 (R&D Systems, Minneapolis, Minn.), cysteinyl LTs, (Cayman Chemical Co, Ann Arbor, Mich.), and LXA4 (Neogen, Lexington, Ky.). Cells in BALF were resuspended in PBS, enumerated by hemocytometer, and concentrated onto microscope slides by cytocentrifuge (STATspin) (265 g). Cells were stained with a Wright-Giemsa stain (Sigma Chemical Co.) to determine leukocyte differentials (after counting ≧200 cells).
smiles,measurement,setting,value
"CCC(O)/C=C/C=C\C/C=C\C/C=C\C=C\[C@@H](O)CCCC(=O)O (mixture of isomers) [5S,18(+/−)-diHEPA]",potency relative to comparator at equal dose,"PMN infiltration; PMN/leukocyte infiltration, FIG. 16 and FIG. 18",equipotent to Resolvin E1
same,inhibition of PMN/leukocyte infiltration,PMN infiltration,downregulation of PMN infiltration
same,inhibition of PMN/leukocyte infiltration,"PMN infiltration; listed as 5S,18(+/−)-diHEPE",reduction of neutrophil infiltration
"CC/C=C\C[C@H](O)/C=C/C=C\C=C\[C@@H](O)C/C=C\CC#CCCC(=O)O [4,5-dehydro 10,17S-dihydroxy DHA]",inhibition of the PMN infiltration,PMN infiltration; 100 ng dose,40%
"CC/C=C\C[C@H](O)/C=C/C=C\CC(O)\C=C/C=C/C=C/[C@@H](O)CCC(=O)O (stereo partly drawn) [4S,11,17R-triHDHA, 4S,11,17S,-trihydroxy-docosa-5E,7E,9Z,13Z,15E,19Z-hexaenoic acid]",inhibition of PMN/leukocyte infiltration,PMN infiltration,potent inhibitor
"CC/C=C\C[C@@H](O)/C=C/C=C\C/C=C\C=C\[C@@H](O)C/C=C\CCC(=O)O [7S,17R-diHDHA, 7S,17R-dihydroxy-docosa-4Z,8E,10Z,13Z,15E,19Z-hexaenoic acid]",inhibition of PMN/leukocyte infiltration,PMN infiltration,potent inhibitor
"CC/C=C\C/C=C\C=C\C(O)C/C=C\C/C=C\C/C=C\CCC(=O)O (centres unmarked) [13-HDHA, 13-hydroxy-DHA]",IC50,[1],~0.05 nM
"CC(=O)Nc1ccc(O)cc1 [Acetaminophen, acetaminophen]",% Increase of 17-HDHA,"human recombinant COX-2; NSAID incubated 30 min with COX-2, ASA 2 mM, indomethacin 200 μM, acetaminophen 500 μM, NS398 100 μM, mean±SEM, n=3",0.0%
same,inhibition at 500 µM,human recombinant COX-2; read-out: % Inhibition of 13-HDHA,87.7 ± 4.3%
same,formation of 17R-HDHA from DHA by NSAID-treated COX-2,human recombinant COX-2; recombinant COX-2 incubations,did not give appreciable amounts of 17R-HDHA
"CC[C@@H](O)/C=C/C=C\C[C@@H](O)/C=C/C=C/C=C\[C@@H](O)CCCC(=O)O [EPA-derived 5,12,18R series product]",prevention of leukocyte diapedesis and exudate formation relative to 15-epi-lipoxin A4 stable analog,leukocyte infiltration,as effective as a potent stable analog of 15-epi-lipoxin A4
"CC[C@@H](O)/C=C/C=C\C[C@@H](O)/C=C/C=C/C=C\[C@@H](O)CCCC(=O)O [Resolvin E1, 5S,12R,18R-trihydroxy-6Z,8E,10E,14Z,16E-eicosapentaenoic acid]",inhibition of PMN/leukocyte infiltration,PMN infiltration,reduction of neutrophil infiltration
same,eosinophil and lymphs (FIG. 25),"[2]; 10,17-DT 20 ng and 200 ng, Resolvin E1 200 ng",reduction
same,"total leukocytes, EOS and Lymphs in BAL fluid","[2]; PD1 2, 20 or 200 ng, Resolvin E1 200 ng i.v.",decreased
